“Also recorded” adds a separate entry of the source.
What was measured:
[1] = Pharmacokinetics of noribogaine in healthy volunteers after single oral dose (plasma, LCMSMS)
[2] = Pupillometry (pupillary miosis) in healthy volunteers; assay type: in vivo, human
Method: (§1) Pulse oximetry and capnography data were collected continuously using a GE Carescape B650 monitoring system from 2 hours prior to dosing and until six hours after dosing, and thereafter at 12, 24, 48 and 72 hours post-dosing. […] Pupillary miosis was assessed by pupillometry.

[3] = Cold pressor test (analgesic effect) in healthy volunteers; assay type: in vivo, human
Method: Analgesic effect was assessed based on duration of hand immersion in ice water and on visual analog scale (VAS) pain scores upon hand removal from the water bath.
(§2) Safety and tolerability of noribogaine were tested in the group of volunteers from Example 1. […] Safety evaluations included clinical monitoring, recording of adverse events (AEs), safety laboratory tests, vital signs, ECG telemetry from −2 h to 6 h after dosing, and 12-lead electrocardiograms (ECGs) up to 216 hours post-dosing.

[4] = Safety and tolerability of noribogaine in healthy volunteers (adverse events, vital signs, ECG); assay type: in vivo, human
Method: as §1, §2

[5] = Efficacy of noribogaine in opioid-dependent participants: time to resumption of opioid substitution treatment; assay type: in vivo, human; conditions: for average time to resumption of opioids: single oral dose
Method: (§3) The efficacy of noribogaine in humans was evaluated in opioid-dependent participants in a randomized, placebo-controlled, double-blind trial. […] See U.S. Provisional Application Ser. No. 61/852,485, filed Mar. 15, 2013, which is incorporated herein by reference in its entirety.
(§4) In the first cohort, six patients were orally administered a single dose of 60 mg noribogaine, and three patients received placebo. In the second cohort, five patients were orally administered a single dose of 120 mg noribogaine, and three patients received placebo.
FIG. 3 indicates the serum noribogaine concentration over time. Serum concentrations for 120 mg dose (black squares) are estimated based on data from the 60 mg dose (gray diamonds).

[6] = Safety and QT interval in opioid-dependent participants; assay type: in vivo, human; conditions: for Mean prolongation of the QT interval: opioid-dependent patients
Method: as §3, §4

[7] = plasma glucuronide after single oral 30 mg noribogaine, healthy volunteers, mean (SD), n = 6
[8] = plasma glucuronide after single oral 60 mg noribogaine, healthy volunteers, mean (SD), n = 6
[9] = after adjusting for baseline differences, p>0.9
[10] = 3 mg dose group, healthy volunteers
[11] = opioid-dependent participants, single oral 60 mg or 120 mg
[12] = across dose groups (3-60 mg), healthy volunteers

## CC[C@H]1C[C@@H]2C[C@H]3c4[nH]c5ccc(OC6OC(C(=O)O)C(O)C(O)C6O)cc5c4CCN(C2)[C@@H]13 (stereo partly drawn) [Noribogaine glucuronide]
[1]; [7]
  AUC0-216 of noribogaine glucuronide: 25.7 (9.1) ng · hr/ml
  AUC0-∞ of noribogaine glucuronide: 25.8 (9.3) ng · hr/ml
  Cmax of noribogaine glucuronide: 1.8 (0.6) ng/ml
  Tmax of noribogaine glucuronide: 3.0 (0.6) hr
  t1/2 of noribogaine glucuronide: 20.6 (4.9) hr
[1]; [8]
  AUC0-216 of noribogaine glucuronide: 65.0 (21.5) ng · hr/ml
  AUC0-∞ of noribogaine glucuronide: 67.1 (21.9) ng · hr/ml
  Cmax of noribogaine glucuronide: 4.1 (1.2) ng/ml
  Tmax of noribogaine glucuronide: 3.8 (1.2) hr
  t1/2 of noribogaine glucuronide: 23.1 (3.0) hr
[1]; plasma, 30 mg and 60 mg noribogaine dose groups
  time of peak glucuronide concentrations after noribogaine dosing: 3 to 4 h

## CC[C@H]1CC2C[C@H]3c4[nH]c5ccc(O)cc5c4CCN(C2)C13 [Noribogaine]
[2]; [9]
  pupil diameter, each dose group vs placebo (ANOVA): no statistically significant differences
[2]; healthy volunteers, 3-60 mg single oral dose
  pupillary constriction: no evidence of pupillary constriction
[3]; after adjusting for baseline differences, p=0.17
  VAS pain scores, each dose group vs placebo (ANOVA): no statistically significant differences
[3]; [9]
  duration of hand immersion, each dose group vs placebo (ANOVA): no statistically significant differences
[3]; healthy volunteers, 3-60 mg single oral dose, 1° C. water
  analgesic effect in the cold pressor test: no analgesic effect
[4]; [10]
  adverse events, Mild: Dizziness; also recorded: Epistaxis; also recorded: Headache; also recorded: Back pain
  adverse events, Moderate: Headache
[4]; 3 mg dose group, two subjects
  number of adverse events reported: five adverse events
[4]; 10 mg dose group, healthy volunteers
  adverse events, Mild: Headache
[4]; 10 mg dose group, single subject
  number of adverse events reported: one adverse event
[4]; 30 mg dose group, healthy volunteers
  adverse events, Mild: Headache
[4]; 30 mg dose group, single subject
  number of adverse events reported: one adverse event
[4]; all dose groups, all resolved prior to study completion
  intensity of adverse events: mild-moderate intensity
[4]; healthy volunteers, 3-60 mg
  changes in oximetry, capnography or respiratory rate: no changes in oximetry or capnography, or changes in respiratory rate
  changes in vital signs or safety laboratory tests: no changes in vital signs or safety laboratory tests of note
[5]; first cohort, blinded: 60 mg noribogaine (6 patients) or placebo (3 patients)
  average time to resumption of opioids: approximately 8.7 hours
[5]; first cohort, blinded: 60 mg noribogaine or placebo
  time to resumption of opioids longer than reported for untreated patients in a similar study: ~2 h
[5]; five presumed noribogaine-treated patients of second cohort (imputed, 120 mg), placebo construed from no QT prolongation
  average time to resumption of OST: approximately 26.8 hours
[5]; lower dosing of noribogaine, human clinical studies (summary statement)
  impact on withdrawal symptoms in addicted patients: minimal impact on withdrawal symptoms
[5]; second cohort, blinded: 120 mg noribogaine (5 patients) or placebo (3 patients)
  average time to resumption of opioids: approximately 23 hours
[6]; first cohort (60 mg noribogaine or placebo)
  Mean prolongation of the QT interval: less than 10 ms
[6]; [11]
  adverse effects: No adverse effects
  hallucinatory effects: no hallucinatory effects
[6]; second cohort (120 mg noribogaine or placebo)
  Mean prolongation of the QT interval: less than 40 ms
[6]; summary statement, increases in opioid addicted patients compared to healthy individuals
  prolongation of the treated patient's QT interval: dose dependent prolongation
[1]; 3-60 mg single oral doses, linear regression
  dose-proportionality of Cmax and AUC: increased linearly with dose
[1]; [12]
  Mean half-life estimates: 28 to 50 h
  Volume of distribution: 1417 to 3086 L
[1]; healthy male volunteers, single oral 3 mg noribogaine, mean (SD), n = 6
  CL/F: 41.4 (7.0) L/h
[1]; healthy male volunteers, single oral 10 mg noribogaine, mean (SD), n = 6
  CL/F: 42.3 (12.0) L/h
[1]; healthy male volunteers, single oral 30 mg noribogaine, mean (SD), n = 6
  CL/F: 46.9 (16.4) L/h
[1]; healthy male volunteers, single oral 30 mg noribogaine, plasma, mean (SD), n = 6
  Tmax: 1.8 (0.6) hr
[1]; healthy male volunteers, single oral 60 mg noribogaine, mean (SD), n = 6
  CL/F: 34.0 (11.4) L/h
[1]; healthy volunteers, 3-60 mg dose groups
  time of peak concentrations after oral dosing: 2 to 3 h

Source: patent US9345711B2, “Methods for acute and long-term treatment of drug addiction” (DemeRx, Inc., priority 2014, dated 2016)
